# Paper PMC10962654 (Journal of Food and Drug Analysis, 2023)
# Like-named read-outs stand apart in the source and are kept apart here.
# Experiments:
# α-HBDH = test: Plasma α-HBDH; assay type: in vivo, Sprague Dawley rats; conditions: MI/R rats, Sigmoid-Emax model
# IMA = test: Plasma IMA; assay type: in vivo, Sprague Dawley rats; conditions: MI/R rats, Sigmoid-Emax model
# [1] = MI/R rats, plasma, n = 6
# cTn I = test: Plasma cTn I; assay type: in vivo, Sprague Dawley rats; conditions: MI/R rats, Sigmoid-Emax model
# CK-MB = test: Plasma CK-MB; assay type: in vivo, Sprague Dawley rats; conditions: MI/R rats, Sigmoid-Emax model
"CL2 ([1]; GHI-H (GHI 10 mL/kg, i.v.)) [mL/min/kg]","K10 ([1]; GHI-H (GHI 10 mL/kg, i.v.)) [h⁻¹]","K12 ([1]; GHI-H (GHI 10 mL/kg, i.v.)) [h⁻¹]","K21 ([1]; GHI-H (GHI 10 mL/kg, i.v.)) [h⁻¹]","Q ([1]; GHI-H (GHI 10 mL/kg, i.v.)) [mL/min/kg]","V1 ([1]; GHI-H (GHI 10 mL/kg, i.v.)) [L/kg]","V2 ([1]; GHI-H (GHI 10 mL/kg, i.v.)) [L/kg]","t1/2α ([1]; GHI-H (GHI 10 mL/kg, i.v.)) [min]","CL1 ([1]; GHI-L (GHI […], i.v.)) [mL/min/kg]","CL2 ([1]; GHI-L (GHI […], i.v.)) [mL/min/kg]","K10 ([1]; GHI-L (GHI […], i.v.)) [h⁻¹]","K12 ([1]; GHI-L (GHI […], i.v.)) [h⁻¹]","K21 ([1]; GHI-L (GHI […], i.v.)) [h⁻¹]","Q ([1]; GHI-L (GHI […], i.v.)) [mL/min/kg]","V1 ([1]; GHI-L (GHI […], i.v.)) [L/kg]","V2 ([1]; GHI-L (GHI […], i.v.)) [L/kg]","t1/2α ([1]; GHI-L (GHI […], i.v.)) [min]","CL1 ([1]; GHI-M (GHI 5 mL/kg, i.v.)) [mL/min/kg]","CL2 ([1]; GHI-M (GHI 5 mL/kg, i.v.)) [mL/min/kg]","K10 ([1]; GHI-M (GHI 5 mL/kg, i.v.)) [h⁻¹]",SMILES,also measured
173.38 ± 15.2,6.701 ± 1.078,27.459 ± 6.003,8.203 ± 0.823,173.3 ± 15.2,0.389 ± 0.059,1.273 ± 0.103,1.08 ± 0.18,44.48 ± 2.82,150 ± 15.1,4.274 ± 1.912,14.327 ± 4.021,3.902 ± 0.294,149.8 ± 15.1,0.672 ± 0.201,2.304 ± 0.146,2.04 ± 0.54,32.32 ± 2.43,120 ± 8.42,3.987 ± 0.663,"O=C(/C=C/c1ccc(O)c(O)c1)O[C@@H]1C[C@](O)(C(=O)O)C[C@@H](O)[C@H]1O [Chlorogenic acid, chlorogenic acid]","Emax (maximal effect) of optimal PK/PD equation, Δα-HBDH (α-HBDH; GHI-H (10 mL/kg, i.v.)): 86.524; Emax (maximal effect) of optimal PK/PD equation, Δα-HBDH (α-HBDH; GHI-L ([…], i.v.)): 48.745; Emax (maximal effect) of optimal PK/PD equation, Δα-HBDH (α-HBDH; GHI-M (5 mL/kg, i.v.)): 72.774; Emax (maximal effect) of optimal PK/PD equation, ΔIMA (IMA; GHI-L ([…], i.v.)): 28.211; CL1 ([1]; GHI-H (GHI 10 mL/kg, i.v.)): 42.57 ± 1.53 mL/min/kg; K12 ([1]; GHI-M (GHI 5 mL/kg, i.v.)): 14.709 ± 1.766 h⁻¹; K21 ([1]; GHI-M (GHI 5 mL/kg, i.v.)): 4.84 ± 0.29 h⁻¹; Q ([1]; GHI-M (GHI 5 mL/kg, i.v.)): 119.8 ± 8.4 mL/min/kg; V1 ([1]; GHI-M (GHI 5 mL/kg, i.v.)): 0.496 ± 0.08 L/kg; V2 ([1]; GHI-M (GHI 5 mL/kg, i.v.)): 1.49 ± 0.142 L/kg; t1/2α ([1]; GHI-M (GHI 5 mL/kg, i.v.)): 1.86 ± 0.18 min; Emax (maximal effect) of optimal PK/PD equation, ΔcTn I (cTn I; GHI-M (5 mL/kg, i.v.)): 7.28"
120.9 ± 37.88,21.205 ± 16.45,26.235 ± 8.526,6.031 ± 0.862,121 ± 37.85,0.309 ± 0.126,1.207 ± 0.352,0.9 ± 0.24,88.93 ± 8.22,144.8 ± 10.5,11.259 ± 2.48,18.242 ± 3.358,2.929 ± 0.214,144.8 ± 10.5,0.493 ± 0.117,2.979 ± 0.292,1.38 ± 0.3,76.58 ± 3.37,76.22 ± 11.2,14.742 ± 5.174,"O=c1c(O[C@@H]2O[C@H](CO)[C@H](O)[C@H](O)[C@H]2O)c(-c2ccc(O)c(O)c2)oc2cc(O)cc(O)c12 [Hyperoside, hyperoside]","CL1 ([1]; GHI-H (GHI 10 mL/kg, i.v.)): 81.92 ± 12 mL/min/kg; K12 ([1]; GHI-M (GHI 5 mL/kg, i.v.)): 14.086 ± 2.688 h⁻¹; K21 ([1]; GHI-M (GHI 5 mL/kg, i.v.)): 4.889 ± 0.407 h⁻¹; Q ([1]; GHI-M (GHI 5 mL/kg, i.v.)): 76.2 ± 11.2 mL/min/kg; V1 ([1]; GHI-M (GHI 5 mL/kg, i.v.)): 0.34 ± 0.1 L/kg; V2 ([1]; GHI-M (GHI 5 mL/kg, i.v.)): 0.935 ± 0.119 L/kg; t1/2α ([1]; GHI-M (GHI 5 mL/kg, i.v.)): 1.38 ± 0.3 min"
,,,,,,,,,,,,,,,,,,,,CC(=O)N[C@@H](CCC(N)=O)C(=O)O [N-acetyl-L-glutamine],"Emax (maximal effect) of optimal PK/PD equation, ΔCK-MB (CK-MB; GHI-L ([…], i.v.)): 11.04; Emax (maximal effect) of optimal PK/PD equation, ΔCK-MB (CK-MB; GHI-M (5 mL/kg, i.v.)): 13.089; Emax (maximal effect) of optimal PK/PD equation, Δα-HBDH (α-HBDH; GHI-H (10 mL/kg, i.v.)): 91.925; Emax (maximal effect) of optimal PK/PD equation, Δα-HBDH (α-HBDH; GHI-L ([…], i.v.)): 48.85; Emax (maximal effect) of optimal PK/PD equation, Δα-HBDH (α-HBDH; GHI-M (5 mL/kg, i.v.)): 72.312; Emax (maximal effect) of optimal PK/PD equation, ΔIMA (IMA; GHI-H (10 mL/kg, i.v.)): 77.916; Emax (maximal effect) of optimal PK/PD equation, ΔIMA (IMA; GHI-L ([…], i.v.)): 31.136; Emax (maximal effect) of optimal PK/PD equation, ΔIMA (IMA; GHI-M (5 mL/kg, i.v.)): 42.733; AUC(0-t) ([1]; GHI-H (GHI 10 mL/kg, i.v.)): 1048.88 ± 551.764 ng·h/mL; AUC(0-∞) ([1]; GHI-H (GHI 10 mL/kg, i.v.)): 1079.308 ± 551.248 ng·h/mL; t1/2β ([1]; GHI-H (GHI 10 mL/kg, i.v.)): 42.5 ± 4.98 min; AUC(0-t) ([1]; GHI-L (GHI […], i.v.)): 538.219 ± 290.308 ng·h/mL; AUC(0-∞) ([1]; GHI-L (GHI […], i.v.)): 553.382 ± 290.017 ng·h/mL; t1/2β ([1]; GHI-L (GHI […], i.v.)): 48.8 ± 4.68 min; AUC(0-t) ([1]; GHI-M (GHI 5 mL/kg, i.v.)): 1012.749 ± 472.353 ng·h/mL; AUC(0-∞) ([1]; GHI-M (GHI 5 mL/kg, i.v.)): 1060.065 ± 473.211 ng·h/mL; t1/2β ([1]; GHI-M (GHI 5 mL/kg, i.v.)): 27.7 ± 1.38 min; Emax (maximal effect) of optimal PK/PD equation, ΔcTn I (cTn I; GHI-H (10 mL/kg, i.v.)): 10.158; Emax (maximal effect) of optimal PK/PD equation, ΔcTn I (cTn I; GHI-L ([…], i.v.)): 4.608; Emax (maximal effect) of optimal PK/PD equation, ΔcTn I (cTn I; GHI-M (5 mL/kg, i.v.)): 6.714"

SMILES,"CL2 ([1]; GHI-H (GHI 10 mL/kg, i.v.)) [mL/min/kg]","K10 ([1]; GHI-H (GHI 10 mL/kg, i.v.)) [h⁻¹]","K12 ([1]; GHI-H (GHI 10 mL/kg, i.v.)) [h⁻¹]","K21 ([1]; GHI-H (GHI 10 mL/kg, i.v.)) [h⁻¹]","Q ([1]; GHI-H (GHI 10 mL/kg, i.v.)) [mL/min/kg]","V1 ([1]; GHI-H (GHI 10 mL/kg, i.v.)) [L/kg]","V2 ([1]; GHI-H (GHI 10 mL/kg, i.v.)) [L/kg]","t1/2α ([1]; GHI-H (GHI 10 mL/kg, i.v.)) [min]","CL1 ([1]; GHI-L (GHI […], i.v.)) [mL/min/kg]","CL2 ([1]; GHI-L (GHI […], i.v.)) [mL/min/kg]","K10 ([1]; GHI-L (GHI […], i.v.)) [h⁻¹]","K12 ([1]; GHI-L (GHI […], i.v.)) [h⁻¹]","K21 ([1]; GHI-L (GHI […], i.v.)) [h⁻¹]","Q ([1]; GHI-L (GHI […], i.v.)) [mL/min/kg]","V1 ([1]; GHI-L (GHI […], i.v.)) [L/kg]","V2 ([1]; GHI-L (GHI […], i.v.)) [L/kg]","t1/2α ([1]; GHI-L (GHI […], i.v.)) [min]","CL1 ([1]; GHI-M (GHI 5 mL/kg, i.v.)) [mL/min/kg]","CL2 ([1]; GHI-M (GHI 5 mL/kg, i.v.)) [mL/min/kg]","K10 ([1]; GHI-M (GHI 5 mL/kg, i.v.)) [h⁻¹]",also measured
"O=c1c(O[C@@H]2O[C@H](CO)[C@@H](O)[C@H](O)[C@H]2O)c(-c2ccc(O)cc2)oc2cc(O)cc(O)c12 [Kaempferol-3-O-glucoside, kaempferol-3-O-glucoside]",141.2 ± 10.2,9.636 ± 0.934,17.927 ± 1.512,6.02 ± 0.636,141.2 ± 10.2,0.475 ± 0.044,1.419 ± 0.173,1.32 ± 0.12,87.58 ± 9.88,133.3 ± 27.68,10.09 ± 2.541,15.148 ± 3.65,2.832 ± 0.492,133.3 ± 27.67,0.54 ± 0.101,2.822 ± 0.3,1.56 ± 0.3,68.72 ± 8.47,79.43 ± 17.82,8.042 ± 3.472,"AUC(0-t) ([1]; GHI-H (GHI 10 mL/kg, i.v.)): 116.314 ± 56.651 ng·h/mL; AUC(0-∞) ([1]; GHI-H (GHI 10 mL/kg, i.v.)): 122.652 ± 56.297 ng·h/mL; t1/2β ([1]; GHI-H (GHI 10 mL/kg, i.v.)): 23.1 ± 3.18 min; AUC(0-t) ([1]; GHI-L (GHI […], i.v.)): 23.576 ± 12.633 ng·h/mL; AUC(0-∞) ([1]; GHI-L (GHI […], i.v.)): 25.109 ± 12.653 ng·h/mL; t1/2β ([1]; GHI-L (GHI […], i.v.)): 40.4 ± 5.64 min; AUC(0-t) ([1]; GHI-M (GHI 5 mL/kg, i.v.)): 31.49 ± 12.303 ng·h/mL; AUC(0-∞) ([1]; GHI-M (GHI 5 mL/kg, i.v.)): 35.448 ± 11.949 ng·h/mL; K12 ([1]; GHI-M (GHI 5 mL/kg, i.v.)): 9.709 ± 5.342 h⁻¹; K21 ([1]; GHI-M (GHI 5 mL/kg, i.v.)): 3.087 ± 1.742 h⁻¹; Q ([1]; GHI-M (GHI 5 mL/kg, i.v.)): 79.4 ± 17.78 mL/min/kg; V1 ([1]; GHI-M (GHI 5 mL/kg, i.v.)): 0.59 ± 0.22 L/kg; V2 ([1]; GHI-M (GHI 5 mL/kg, i.v.)): 1.87 ± 0.735 L/kg; t1/2α ([1]; GHI-M (GHI 5 mL/kg, i.v.)): 2.7 ± 1.44 min; t1/2β ([1]; GHI-M (GHI 5 mL/kg, i.v.)): 41.5 ± 21.7 min; Emax (maximal effect) of optimal PK/PD equation, ΔcTn I (cTn I; GHI-L ([…], i.v.)): 4.625"
